Assay [1] has as its target T1, D4 receptor (Homo sapiens, UniProt P21917).
T1 sequence (P21917 1-419): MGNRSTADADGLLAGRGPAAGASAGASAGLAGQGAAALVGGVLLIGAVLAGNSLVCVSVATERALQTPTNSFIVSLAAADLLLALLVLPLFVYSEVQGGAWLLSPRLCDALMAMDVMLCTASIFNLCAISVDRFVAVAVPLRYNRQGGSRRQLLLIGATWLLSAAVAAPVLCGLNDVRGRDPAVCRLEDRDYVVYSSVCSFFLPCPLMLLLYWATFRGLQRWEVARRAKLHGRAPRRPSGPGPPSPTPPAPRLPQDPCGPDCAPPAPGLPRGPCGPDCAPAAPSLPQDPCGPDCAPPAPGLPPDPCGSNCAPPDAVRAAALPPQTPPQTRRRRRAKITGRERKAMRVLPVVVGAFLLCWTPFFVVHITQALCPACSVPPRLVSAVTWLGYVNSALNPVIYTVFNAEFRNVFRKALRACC
The following applies: cloned human D2-like receptors; ref [11]; cited from earlier work.

Assay [2] concerns the target T2, D2 receptor (Homo sapiens, UniProt P14416). To be noted: cloned human D2-like receptors; ref [11]; cited from earlier work.
The target in assay [3] is T2, D2 receptor. The assay is described as follows: D2 receptor binding affinity, Pfizer laboratories. To be noted: same assay procedure in the same laboratory.
Assay [4] addresses T1, D4 receptor. The assay is described as follows: D4 receptor binding affinity, Pfizer laboratories. To be noted: for D2/D4: Table 2, ratio of Ki values, Pfizer laboratories data.
Assay [5] concerns the target T1, D4 receptor. The assay is described as follows: D4 receptor binding affinity, NIMH-PDSP.
The target in assay [6] is T2, D2 receptor. Put plainly: D2 receptor binding affinity, NIMH-PDSP.
A further assay deals with D3 receptor (Homo sapiens, UniProt P35462). The assay is described as follows: D3 receptor binding affinity, NIMH-PDSP.
Chain of D3 receptor (P35462 whole entry): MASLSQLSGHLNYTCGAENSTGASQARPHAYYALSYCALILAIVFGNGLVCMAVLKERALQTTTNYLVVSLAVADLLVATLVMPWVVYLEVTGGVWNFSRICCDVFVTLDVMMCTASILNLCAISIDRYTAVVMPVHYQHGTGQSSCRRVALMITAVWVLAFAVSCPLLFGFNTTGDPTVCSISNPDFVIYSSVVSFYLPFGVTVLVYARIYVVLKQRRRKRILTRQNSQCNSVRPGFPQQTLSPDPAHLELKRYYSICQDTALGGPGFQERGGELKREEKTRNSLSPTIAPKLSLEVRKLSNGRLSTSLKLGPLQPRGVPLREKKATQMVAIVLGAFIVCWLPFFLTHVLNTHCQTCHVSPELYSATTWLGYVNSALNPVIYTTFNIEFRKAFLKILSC
Setting [7] is: Table 2, NIMH-PDSP data, MPA = Missed primary assay threshold of 50% inhibition.

We go through 6 compounds from PMC2719767 (Bioorganic & medicinal chemistry, 2008).

Structures can show the parent of a compound that is named as a salt.

T2 sequence (P14416 whole entry): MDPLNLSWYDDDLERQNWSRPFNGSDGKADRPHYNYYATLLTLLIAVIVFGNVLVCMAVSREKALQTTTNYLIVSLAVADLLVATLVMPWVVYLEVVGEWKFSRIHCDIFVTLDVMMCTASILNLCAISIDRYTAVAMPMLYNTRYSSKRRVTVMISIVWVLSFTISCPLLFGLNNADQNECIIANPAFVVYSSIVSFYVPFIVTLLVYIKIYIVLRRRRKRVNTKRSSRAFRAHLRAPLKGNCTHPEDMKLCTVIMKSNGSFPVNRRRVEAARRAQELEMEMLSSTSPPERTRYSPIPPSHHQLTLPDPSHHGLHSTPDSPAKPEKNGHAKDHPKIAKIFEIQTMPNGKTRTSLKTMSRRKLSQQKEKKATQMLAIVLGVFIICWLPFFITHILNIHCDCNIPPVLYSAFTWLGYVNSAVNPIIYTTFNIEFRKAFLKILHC

For the compound `O=C(CCCN1CCN(c2ccc(Cl)cc2)CC1)c1ccc(F)cc1` [Compound 1], the D4 selectivity on D4 receptor [1] is on record as 15 fold. Moreover, the “fold D2 potency conferred by butyrophenone (compound 1 vs L745,870)” value on D2 receptor [2] is < 4 fold.
Consider `Clc1ccc(N2CCCN(Cc3c[nH]c4ncccc34)CC2)cc1` [Compound 7, 3-{[4-(4-chlorophenyl)-1,4-diazepan-1-yl]methyl}-1H-pyrrolo[2,3-b]pyridine, HCl], for which, on D2 receptor [3], the “fold lower affinity for the D2 receptor than compound 6” value amounted to 7 fold. In addition, the “fold lower affinity for the D4 receptor than compound 6” value on D4 receptor [4] (same assay procedure in the same laboratory) came to 3 fold.
In general, Ki refers to the equilibrium dissociation constant of an inhibitor or competing ligand from its target. A higher Ki goes with weaker binding. Take `Clc1ccc(N2C3CCC2CN(Cc2c[nH]c4ncccc24)CC3)cc1` (stereo not drawn) [Compound 9, 3-[(1H-pyrrolo[2,3-b]pyridin-3-yl)methyl]-9-(4-chlorophenyl)-3,9-diazabicyclo[4.2.1]nonane]: the D2/D4 on D4 receptor [5] was >17. The Ki was 584 ± 115 nM on D4 receptor [5], > 10000 nM at D2 receptor [6] and 335 ± 178 nM at D3 receptor.
For `O=C(CCCN1CC2CC1N(c1ccc(Cl)cc1)C2)c1ccc(F)cc1` (stereo not drawn) [Compound 10], the D2/D4 at D4 receptor [4] is given as 0.33.
With `OC1(c2ccc(Cl)cc2)CCN(Cc2c[nH]c3ncccc23)C1` (stereo not drawn) [Compound 13, 3-(4-chlorophenyl)-1-(1H-pyrrolo[2,3-b]pyridin-3-ylmethyl)pyrrolidin-3-ol], the “Ki ± SEM, D2” value on D2 receptor [6] (setting [7]) is “MPA”. Moreover, the “Ki ± SEM, D3” value on D3 receptor (setting [7]) was “MPA”.
For the compound `c1cnc(N2CCN(Cc3c[nH]c4ncccc34)CC2)nc1` [Compound 15, 3-{(4-(pyrimidin-2-yl)piperazin-1-yl)methyl}-1H-pyrrolo[2,3-b]pyridine], at D4 receptor [4], the D2/D4 turned out to be 21.
